Data on two molecules can be found in patent US4064010A, “Purification of uricase” (Eastman Kodak Company, priority 1976, dated 1977).

The assay has as its target Micrococcus luteus NRRL B-8166 uricase. The experiment in a line: Assay of uricase (spectrophotometric, disappearance of uric acid at 290 nm). Type of assay: biochemical. As for the experimental part:
Uricase was assayed spectrophotometrically by following the disappearance of uric acid at 290 nm using a modification of the procedure described by Mahler et. al, J. Biol. Chem., 216, p. 625, (1955). Assay tubes contained 2.7 ml 50 mM KPi buffer pH 8.6, 0.1 mM sodium EDTA, 0.05 ml 6 mM urate, plus enzyme and water to give a final volume of 3.0 ml. Changes or additions to the assay mixtures were made when necessary. Tubes were incubated for 5 minutes at 30° C; the reaction was started by adding enzyme. Molar extinction coefficient for uric acid at 290 nm is 12,300. Activity was expressed in units of uricase activity, where a unit is that amount of enzyme which catalyzes the oxidation of one μmole of uric acid per minute at 30° C and pH 8.6.

SMILES strings stand for the structures.

As for `O=C(O)c1nc(=O)[nH]c(=O)[nH]1` [oxonate], the Ki (read-out: inhibition constant for oxonate) stood at 4.5 µM.

With `O=c1[nH]c(=O)c2[nH]c(=O)[nH]c2[nH]1` [uric acid], under “substrate not given, the uricase assay uses urate, KPi buffer pH 8.6, 30° C, read-out: Michaelis constant”, the Km amounted to 37 µM.
